According to US11904051B2, “Shear stress sensitive liposomes” (Universität Basel, priority 2018, dated 2024):
“And” between values parts separate entries of the source, which are not always exact repeats. Identical values can stand only once. One block for each molecule: values may come before it.

How the values were obtained:
[1] = Small-angle neutron scattering (SANS) of liposomes as a function of temperature; assay type: physicochemical; parameters: key to Eccentricity: ε = c/R axis ratio; <1 oblate, 1 spherical, >1 prolate
Source text: In order to determine the structural parameters, including the bilayer thickness of the selected liposomal formulations, a suitable model for data fitting has to be identified. […] The structure factor was fitted using the sticky hard sphere model (Baxter et al., The Journal of Chemical Physics 1968, 49 (6), 2770-2774; Mays, Langmuir 1989, 5, 422-428). In order to adjust the form factor to the overall shape of the liposomes, an ellipsoidal shell model with a homogeneous cross-section (Guinier, Annales de Physique, 1939; pp 161-237) was applied. The elliptical shell model is defined by three orthogonal axes with lengths a=R, b=R and c=εR, along with eccentricity ε>0, (ε<1: oblate, ε=1: spherical, ε>1: prolate). The model also accounts for variations in bilayer thickness and liposome size. As the scattering data of the Pad-PC-Pad liposomes at the temperature of 35° C. could not be approximated satisfactorily by means of the ellipsoidal shell, the inventors included disks with a homogeneous cross-section—an approach motivated by the cryo-TEM results. Together with the experimental data of the Pad-PC-Pad liposomes at three selected temperatures, the obtained fits are represented in FIG. 23.
The inventors recognised that the inhomogeneity of the liposomal formulations, except for Pad-PC-Pad, concerning the shape and size of the artificial lipids in this study only allows for the reasonable fitting of the q-range, which corresponds to bilayer thickness. For this purpose, the inventors applied an extended Guinier law (Hjelm et al., The Journal of Physical Chemistry B 2000, 104 (2), 197-211; Fratzl, Journal of Statistical Physics 1994, 77 (1-2), 125-143), which yields the thickness of the bilayer. To account for possible multi-lamellarity, the inventors included a para-crystalline stacking model (Schwartz et al., Biophysical journal 1975, 15 (12), 1201-1233; FruÈhwirth et al., Journal of Applied Crystallography 2004, 37 (5), 703-710) as a structure factor.
SANS measurements were performed at the SANS-I beamline at the Swiss Spallation Neutron Source SINQ facility (Paul Scherrer Institute, Villigen, Switzerland). The samples were loaded into 2 mm-path length, boron-free quartz glass cells and mounted in a temperature-controlled holder. This system allows for controlling the temperature of the specimen with an accuracy better than 1 K. The liposomal suspensions were measured between 22 and 42° C. in 3 to 4 K steps. Subsequently, the suspensions were cooled down to room temperature (22° C.) and measured again. Three detector distances, i.e. 1.6, 6.0 and 18.0 m, were used to collect data over the range of scattering vectors 0.01 nm^−1<q<10 nm^−1 at the neutron wavelengths (A) […]. Data were collected with a two-dimensional ^3He-detector with an array of 128×128 pixels and reduced to one-dimensional I(q) scattering curves, thus radially averaging the two-dimensional images. The data were corrected for transmission, background scattering and detector efficiency according to a standard procedure using the BerSANS software package (Keiderling, Applied Physics A 2002, 74 (1), s1455-s1457; Strunz et al., Journal of Applied Crystallography 2000, 33 (3 Part 1), 829-833).
The SANS data were analysed using SASfit software (Breßler et al., Journal of Applied Crystallography 2015, 48 (5), 1587-1598) and corresponding models. A Pad-PC-Pad sample was fitted over the entire measured q-range, whereas we restricted the fit for the other samples to the q-range, which corresponds to lipid bilayer thickness. For Pad-PC-Pad, the inventors used an ellipsoidal shell model with a homogeneous cross-section (Guinier, Annales de Physique, 1939; pp 161-237) and size distributions in terms of both thickness and radius. […]

[2] = reported previously; cited from earlier work
[3] = Differential scanning calorimetry, main phase transition of vesicle membranes; assay type: physicochemical; details: for Tm: main phase transition temperature of liposome membrane
Source text: Interdigitation of membrane leaflets also influences the membranes main-phase transition temperature. […] Also, the value for the bilayer main-phase transition temperature is 11.5 K higher than the calculated critical temperature from the monolayer experiments, where no interdigitation is possible.

[4] = Release experiments with 5(6)-carboxyfluorescein-loaded large unilamellar vesicles (LUVET100), spontaneous and vortex-triggered; assay type: physicochemical; details: for Release at RT after 60 s vortex / Release 37° C. after 60 s vortex: mechanically induced release, 60 s vortexing; for Release at RT after 60 s vortex / Release at RT after 7 days: 22° C. (RT); for Release at RT after 7 days: spontaneous release of 5(6)-carboxyfluorescein; for release at 37° C. without vortexing: without vortexing/shaking
Source text: FIG. 8 Release experiments using 5(6)-carboxyfluorescein-loaded large unilamellar vesicles comprising 1,3-diheptadecanamidopropan-2-yl (2-(trimethylammonio) ethyl) phosphate (4) obtained via extrusion through a 100 nm track-edged filter membrane (LUVET100). Triggered release was induced by shaking the samples for a specific amount of time on a vortex-shaker.
Previously the inventors reported the 5(6)-carboxyfluorescein release from vesicles containing 1,3-palmitoylamido-1,3-deoxy-sn-glycero-2-phosphatidylcholine (2) (Holme et al., Nat. Nanotechnol. 2012, 7, 536-543). […] Increasing the Tm promises improved release properties. […] This leads to a lower leakage of the vesicles at 22° C. (room temperature) as well as 37° C. (average human body temperature) (FIG. 8). A prolongation if the acyl chain to the artificial C18 phospholipid 1,3-stearoylamido-1,3-deoxy-sn-glycero-2-phosphatidylcholine leads to an increased Tm of 52° C., but this phospholipid forms almost no liposomes anymore.
Each sample was treated with Triton X-100 to induce a full release of 5(6)-carboxy fluorescein.
Large unilamellar vesicles with a diameter of 100 nm (LUVET100) of the 1,3-diheptadecanamidopropan-2-yl (2-(trimethylammonio) ethyl) phosphate (4) were prepared following the extrusion protocol: in a 25 ml round bottom flask, 10 mg of the lipid was dissolved in CH2Cl2. After evaporation of the organic solvent, the film was further dried under high vacuum (40 mbar) overnight. Then the film was hydrated with the internal buffer for 30 min (1 ml, 50 mM 5(6)-carboxyfluorescein, 10 mM HEPES buffer (AppliChem), 10 mM NaCl dissolved in pure water, pH 7.4). Now at least 5 freeze-thaw cycles (liquid N2 to 65° C.) were carried out before the suspension was extruded 11 times using a Mini Extruder (Avanti Polar Lipids, USA) using track-edged filters with a mesh size of 100 nm (Whatman, USA). The external buffer was then exchanged on a size exclusion column (1.5×20 cm Sephadex G-50 column) in external buffer (107 mM NaCl dissolved in ultrapure water, 10 mM HEPES, pH 7.4).

[5] = 22 ° C. (after cooling down to room temperature)
[6] = 35 ° C., contribution for disks accounted for
[7] = LUVs, heating and cooling rates of 0.5° C./min

most probable bilayer thickness ([1]; 22 ° C.): 4.59 nm
most probable bilayer thickness [1, 5]: 4.67 nm
most probable bilayer thickness ([1]; 25 ° C.): 4.58 nm
most probable bilayer thickness ([1]; 28 ° C.): 4.62 nm
most probable bilayer thickness ([1]; 32 ° C.): 4.61 nm
most probable bilayer thickness ([1]; 35 ° C.): 4.61 nm
most probable bilayer thickness ([1]; 39 ° C.): 4.65 nm
most probable bilayer thickness ([1]; 42 ° C.): 4.65 nm
Tm [3]: 41 °C
Release at 37° C. after 2 h [4]: 12.2%
Release at RT after 60 s vortex [4]: 1.1%
Release 37° C. after 60 s vortex [4]: 17.9%
Release at RT after 7 days [4]: 4.5%
SMILES: CCCCCCCCCCCCCCCC(=O)OC[C@H](COP(=O)([O-])OCC[N+](C)(C)C)OC(=O)CCCCCCCCCCCCCCC [DPPC, 1,2-dipalmitoyl-sn-glycero-3-phosphocholine]
Tm, main phase transition temperature [2]: 41 °C

Bilayer thickness ([1]; 22 ° C.): 3.46 ± 1.07 nm
Eccentricity ([1]; 22 ° C.): 0.35
Radius ([1]; 22 ° C.): 69.96 ± 19.05 nm
Bilayer thickness [1, 5]: 4.18 ± 0.70 nm
Eccentricity [1, 5]: 0.04
Radius [1, 5]: 70.41 ± 31.77 nm
Bilayer thickness ([1]; 25 ° C.): 3.38 ± 0.94 nm
Eccentricity ([1]; 25 ° C.): 0.35
Radius ([1]; 25 ° C.): 66.22 ± 21.15 nm
Bilayer thickness ([1]; 28 ° C.): 3.34 ± 0.91 nm
Eccentricity ([1]; 28 ° C.): 0.32
Radius ([1]; 28 ° C.): 69.96 ± 16.31 nm
Bilayer thickness ([1]; 32 ° C.): 3.37 ± 0.89 nm
Eccentricity ([1]; 32 ° C.): 0.31
Radius ([1]; 32 ° C.): 69.90 ± 15.93 nm
Bilayer thickness [1, 6]: 3.42 ± 0.88 nm
Eccentricity [1, 6]: 0.88
Radius [1, 6]: 64.91 nm
Bilayer thickness ([1]; 39 ° C.): 3.37 ± 0.76 nm
Eccentricity ([1]; 39 ° C.): 0.04
Radius ([1]; 39 ° C.): 71.96 ± 5.40 nm
Bilayer thickness ([1]; 42 ° C.): 3.57 ± 0.74 nm
Eccentricity ([1]; 42 ° C.): 0.05
Radius ([1]; 42 ° C.): 71.35 ± 5.01 nm
increase in bilayer thickness after the heating cycle ([1]; temperature cycle to 42° C. including cooling to room temperature): 21%
Tm [3]: 37 °C
Release at 37° C. after 2 h [4]: 100%
release at 37° C. without vortexing [4]: 100%
release at 37° C. without vortexing ([4]; listed as 1,3-palmitoylamido-1,3-deoxy-sn-glycero-2-phosphatidylcholine): immediate full release
Release at RT after 60 s vortex [4]: 43.4%
Release 37° C. after 60 s vortex [4]: 100%
Release at RT after 7 days [4]: 15.5%
SMILES: CCCCCCCCCCCCCCCC(=O)NCC(CNC(=O)CCCCCCCCCCCCCCC)OP(=O)([O-])OCC[N+](C)(C)C [Pad-PC-Pad, 1,3-palmitoylamido-1,3-deoxy-sn-glycero-2-phosphatidylcholine]
Tm, main phase transition temperature [2]: 37 °C

most probable bilayer thickness ([1]; 22 ° C.): 4.55 nm
most probable bilayer thickness [1, 5]: 4.45 nm
most probable bilayer thickness ([1]; 25 ° C.): 4.57 nm
most probable bilayer thickness ([1]; 28 ° C.): 4.55 nm
most probable bilayer thickness ([1]; 32 ° C.): 4.51 nm
most probable bilayer thickness ([1]; 35 ° C.): 4.45 nm
most probable bilayer thickness ([1]; 39 ° C.): 4.35 nm
most probable bilayer thickness ([1]; 42 ° C.): 4.4 nm
thermal stability of liposomes ([1]; temperature range between 22 and 42° C.): thermally stable up to 42 °C
change in enthalpy at main phase transition [3, 7]: 5.774 kcal/mol
main phase transition temperature [3, 7]: 44.7 °C
Tm [3]: 45 °C
Release at 37° C. after 2 h [4]: 6%
Release at RT after 60 s vortex [4]: 24% and 23.8%
Release 37° C. after 60 s vortex [4]: 34%
Release at RT after 7 days [4]: 9% and 9.4%
SMILES: CCCCCCCCCCCCCCCCC(=O)NCC(CNC(=O)CCCCCCCCCCCCCCCC)OP(=O)([O-])OCC[N+](C)(C)C [Rad-PC-Rad, 1,3-diheptadecanamidopropan-2-yl (2-(trimethylammonio)ethyl) phosphate]
Tm, main phase transition temperature [2]: 45 °C
